pIC50, pKi: −log10 of the molar value.
How the values were obtained:
[1] = molecular target: full-length RORγt in Jurkat cells (Homo sapiens (Human), UniProt P51449); test: RORγt 5×RORE Assay in Jurkat Cells (Assay 2); type: cell-based; settings: 5×RORE Nanoluc luciferase reporter
[2] = molecular target: recombinant RORγ Ligand Binding Domain (LBD) protein (Homo sapiens (Human), UniProt P51449); test: Radio-Ligand RORγ Binding Assay (Assay 1); settings: competition with 25-hydroxy [26,27-3H]-cholesterol, SPA
Summary of the method: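 His-GST-fused RORγ ligand-binding domain (24 nM solution) competed between compounds and tritiated 25-hydroxycholesterol (8.6 nM solution), read by SPA after brief rt incubations in pH 7.4 HEPES/glycerol/detergent buffer. Four-parameter curve fitting gave IC50 at inflection, converted to Ki using radioligand concentration and KD.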

Chain of full-length RORγt in Jurkat cells (P51449 other isoform, or with tags, fused parts or gaps): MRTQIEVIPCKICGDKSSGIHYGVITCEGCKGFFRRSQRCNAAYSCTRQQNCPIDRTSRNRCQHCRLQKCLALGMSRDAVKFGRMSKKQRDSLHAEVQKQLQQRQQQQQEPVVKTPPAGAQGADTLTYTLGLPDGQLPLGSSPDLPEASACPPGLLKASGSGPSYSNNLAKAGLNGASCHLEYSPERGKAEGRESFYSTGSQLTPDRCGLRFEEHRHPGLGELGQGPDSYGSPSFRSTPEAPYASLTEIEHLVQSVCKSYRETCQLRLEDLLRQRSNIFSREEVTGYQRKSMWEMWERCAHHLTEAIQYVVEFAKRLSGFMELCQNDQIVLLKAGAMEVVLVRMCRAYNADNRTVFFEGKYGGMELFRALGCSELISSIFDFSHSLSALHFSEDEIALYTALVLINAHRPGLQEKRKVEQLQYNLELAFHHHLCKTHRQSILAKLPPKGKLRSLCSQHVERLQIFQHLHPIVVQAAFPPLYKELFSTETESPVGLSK
Chain of recombinant RORγ Ligand Binding Domain (LBD) protein (P51449 269-508): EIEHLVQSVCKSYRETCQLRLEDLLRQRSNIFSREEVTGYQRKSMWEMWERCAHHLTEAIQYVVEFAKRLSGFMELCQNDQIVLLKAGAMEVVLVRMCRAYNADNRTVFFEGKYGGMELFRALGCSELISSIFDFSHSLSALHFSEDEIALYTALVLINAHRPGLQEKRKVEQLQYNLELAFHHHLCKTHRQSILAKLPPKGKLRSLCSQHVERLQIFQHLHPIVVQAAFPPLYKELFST

pIC50 [1] | pKi [2] | SMILES
> 7.00 | > 7.00 | CCS(=O)(=O)c1ccc([C@H](CO)NC(=O)c2ccc3c(c2)nc(C2(F)CC2)n3Cc2cccc3c2OC(F)(F)O3)nc1 [I-134.1, (R)-1-((2,2-difluorobenzo[d][1,3]dioxol-4-yl)methyl)-N-(1-(5-(ethylsulfonyl)pyridin-2-yl)-2-hydroxyethyl)-2-(1-fluorocyclopropyl)-1H-benzo[d]imidazole-5-carboxamide]
6.00 to 7.00 | > 7.00 | CCS(=O)(=O)c1ccc(CNC(=O)c2ccc3c(c2)nc(C(F)(F)F)n3C2(c3cccc(C#N)c3)CC2)cc1 [I-92, 1-(1-(3-cyanophenyl)cyclopropyl)-N-(4-(ethylsulfonyl)benzyl)-2-(trifluoromethyl)-1H-benzo[d]imidazole-5-carboxamide]
< 6.00 | > 7.00 | COc1cc(Cn2c(C(F)(F)F)nc3cc(C(=O)NCc4ccc(S(=O)(=O)CCO)cc4)ccc32)cc(OC)c1 [I-124, 1-(3,5-dimethoxybenzyl)-N-(4-((2-hydroxyethyl)sulfonyl)benzyl)-2-(trifluoromethyl)-1H-benzo[d]imidazole-5-carboxamide]
> 7.00 | > 7.00 | CCS(=O)(=O)c1ccc(CNC(=O)c2ccc3c(c2)nc(C2CC2)n3[C@H](C)c2cccc3c2OC(F)(F)O3)cc1 [I-149, (R)-2-cyclopropyl-1-(1-(2,2-difluorobenzo[d][1,3]dioxol-4-yl)ethyl)-N-(4-(ethylsulfonyl)benzyl)-1H-benzo[d]imidazole-5-carboxamide]
6.00 to 7.00 | > 7.00 | CCS(=O)(=O)c1ccc(CNC(=O)c2ccc3c(c2)nc(C2CC2)n3Cc2cc(OC)cc(OC)c2)cc1 [I-103, 2-cyclopropyl-1-(3,5-dimethoxybenzyl)-N-(4-(ethylsulfonyl)benzyl)-1H-benzo[d]imidazole-5-carboxamide]
> 7.00 | > 7.00 | CNS(=O)(=O)N1CCC(CNC(=O)c2ccc3c(c2)nc(C(F)(F)F)n3Cc2cccc3c2OC(F)(F)O3)CC1 [I-77, 1-((2,2-difluorobenzo[d][1,3]dioxol-4-yl)methyl)-N-((1-(N-methylsulfamoyl)piperidin-4-yl)methyl)-2-(trifluoromethyl)-1H-benzo[d]imidazole-5-carboxamide]
> 7.00 | > 7.00 | CCS(=O)(=O)c1ccc(CNC(=O)c2ccc3c(c2)nc(C(C)(F)F)n3Cc2cccc3c2OC(F)(F)O3)cc1 [I-38, 1-((2,2-difluorobenzo[d][1,3]dioxol-4-yl)methyl)-2-(1,1-difluoroethyl)-N-(4-(ethylsulfonyl)benzyl)-1H-benzo[d]imidazole-5-carboxamide]
> 7.00 | > 7.00 | CCS(=O)(=O)c1ccc(CNC(=O)c2ccc3c(c2)nc(C(F)(F)F)n3Cc2cccc3c2OC(F)(F)O3)nc1 [I-63, 1-((2,2-difluorobenzo[d][1,3]dioxol-4-yl)methyl)-N-((5-(ethylsulfonyl)pyridin-2-yl)methyl)-2-(trifluoromethyl)-1H-benzo[d]imidazole-5-carboxamide]
< 6.00 | > 7.00 | CCS(=O)(=O)c1ccc(CNC(=O)c2ccc3c(c2)nc(C2CC2)n3Cc2cccc3c2OC(C)(C)C3)cc1 [I-118, 2-cyclopropyl-1-((2,2-dimethyl-2,3-dihydrobenzofuran-7-yl)methyl)-N-(4-(ethylsulfonyl)benzyl)-1H-benzo[d]imidazole-5-carboxamide]
> 7.00 | > 7.00 | CCS(=O)(=O)c1ccc(CNC(=O)c2ccc3c(c2)nc(C(F)(F)F)n3Cc2cccc3nonc23)cc1 [I-151, 1-(benzo[c][1,2,5]oxadiazol-4-ylmethyl)-N-(4-(ethylsulfonyl)benzyl)-2-(trifluoromethyl)-1H-benzo[d]imidazole-5-carboxamide]
> 7.00 | > 7.00 | O=C(Cc1ccc(S(=O)(=O)CCO)cc1)Nc1ccc2c(c1)nc(C(F)(F)F)n2Cc1cccc2c1OC(F)(F)O2 [I-3, N-(1-((2,2-difluorobenzo[d][1,3]dioxol-4-yl)methyl)-2-(trifluoromethyl)-1H-benzo[d]imidazol-5-yl)-2-(4-((2-hydroxyethyl)sulfonyl)phenyl)acetamide]
> 7.00 | > 7.00 | CCS(=O)(=O)c1ccc(CNC(=O)c2ccc3c(c2)nc(COC)n3Cc2cccc3c2OC(F)(F)O3)cc1 [I-28, 1-((2,2-difluorobenzo[d][1,3]dioxol-4-yl)methyl)-N-(4-(ethylsulfonyl)benzyl)-2-(methoxymethyl)-1H-benzo[d]imidazole-5-carboxamide]
> 7.00 | > 7.00 | CS(=O)(=O)c1ccc([C@H](CO)NC(=O)c2ccc3c(c2)nc(C(F)(F)F)n3Cc2cccc3c2OC(F)(F)O3)cc1 [I-20.1, (R)-1-((2,2-difluorobenzo[d][1,3]dioxol-4-yl)methyl)-N-(2-hydroxy-1-(4-(methylsulfonyl)phenyl)ethyl)-2-(trifluoromethyl)-1H-benzo[d]imidazole-5-carboxamide]
> 7.00 | > 7.00 | CCS(=O)(=O)c1ccc(CNC(=O)c2ccc3c(c2)nc(N(C)C)n3Cc2cccc3c2OC(F)(F)O3)cc1 [I-162, 1-((2,2-difluorobenzo[d][1,3]dioxol-4-yl)methyl)-2-(dimethylamino)-N-(4-(ethylsulfonyl)benzyl)-1H-benzo[d]imidazole-5-carboxamide]
> 7.00 | > 7.00 | CCS(=O)(=O)c1ccc(CNC(=O)c2ccc3c(c2)nc(C2CCC2)n3Cc2cccc3c2OC(F)(F)O3)cc1 [I-36, 2-cyclobutyl-1-((2,2-difluorobenzo[d][1,3]dioxol-4-yl)methyl)-N-(4-(ethylsulfonyl)benzyl)-1H-benzo[d]imidazole-5-carboxamide]
> 7.00 | > 7.00 | CS(=O)(=O)N1CCC(CNC(=O)c2ccc3c(c2)nc(C(F)(F)F)n3Cc2cccc3c2OC(F)(F)O3)CC1 [I-71, 1-((2,2-difluorobenzo[d][1,3]dioxol-4-yl)methyl)-N-((1-(methylsulfonyl)piperidin-4-yl)methyl)-2-(trifluoromethyl)-1H-benzo[d]imidazole-5-carboxamide]
> 7.00 | > 7.00 | CCS(=O)(=O)c1ccc(CNC(=O)c2ccc3c(c2)nc(C(F)(F)F)n3Cc2cccc3c2OC(F)(F)O3)cc1 [I-25, 1-((2,2-difluorobenzo[d][1,3]dioxol-4-yl)methyl)-N-(4-(ethylsulfonyl)benzyl)-2-(trifluoromethyl)-1H-benzo[d]imidazole-5-carboxamide]
> 7.00 | > 7.00 | CCS(=O)(=O)c1ccc(CNC(=O)c2ccc3c(c2)nc(C(F)(F)F)n3Cc2cccc3c2OC(F)(F)O3)c(O)c1 [I-126, 1-((2,2-difluorobenzo[d][1,3]dioxol-4-yl)methyl)-N-(4-(ethylsulfonyl)-2-hydroxybenzyl)-2-(trifluoromethyl)-1H-benzo[d]imidazole-5-carboxamide]
6.00 to 7.00 | > 7.00 | CCS(=O)(=O)c1ccc(CNC(=O)c2ccc3c(c2)nc([C@@H]2C[C@H]2C(=O)OC)n3Cc2cccc3c2OC(F)(F)O3)cc1 [I-58, methyl(1R,2R)-2-(1-((2,2-difluorobenzo[d][1,3]dioxol-4-yl)methyl)-5-((4-(ethylsulfonyl)benzyl)carbamoyl)-1H-benzo[d]imidazol-2-yl)cyclopropane-1-carboxylate]
< 6.00 | > 7.00 | CCS(=O)(=O)c1ccc(CNC(=O)c2ccc3c(c2)nc(C)n3Cc2cccc3c2OC(F)(F)O3)cc1 [I-32, 1-((2,2-difluorobenzo[d][1,3]dioxol-4-yl)methyl)-N-(4-(ethylsulfonyl)benzyl)-2-methyl-1H-benzo[d]imidazole-5-carboxamide]
6.00 to 7.00 | > 7.00 | O=C(O)CC1CCC(CNC(=O)c2ccc3c(c2)nc(C(F)(F)F)n3Cc2cccc3c2OC(F)(F)O3)CC1 (stereo not drawn) [I-120, 2-(4-((1-((2,2-difluorobenzo[d][1,3]dioxol-4-yl)methyl)-2-(trifluoromethyl)-1H-benzo[d]imidazole-5-carboxamido)methyl)cyclohexyl)acetic acid]

SMILES | pIC50 [1] | pKi [2]
CS(=O)(=O)N1CCC([C@H](CO)NC(=O)c2ccc3c(c2)nc(C(F)(F)F)n3Cc2cccc3c2OC(F)(F)O3)CC1 (mixture of isomers) [I-164.2, (R)-1-((2,2-difluorobenzo[d][1,3]dioxol-4-yl)methyl)-N-(2-hydroxy-1-(1-(methylsulfonyl)piperidin-4-yl)ethyl)-2-(trifluoromethyl)-1H-benzo[d]imidazole-5-carboxamide and (S)-1-((2,2-difluorobenzo[d][1,3]dioxol-4-yl)methyl)-N-(2-hydroxy-1-(1-(methylsulfonyl)piperidin-4-yl)ethyl)-2-(trifluoromethyl)-1H-benzo[d]imidazole-5-carboxamide] | > 7.00 | > 7.00
CCS(=O)(=O)c1ccc(CNC(=O)c2ccc3c(c2)nc([C@H](C)OC)n3Cc2cccc3c2OC(F)(F)O3)cc1 (mixture of isomers) [I-49.1, (S)-1-((2,2-difluorobenzo[d][1,3]dioxol-4-yl)methyl)-N-(4-(ethylsulfonyl)benzyl)-2-(1-methoxyethyl)-1H-benzo[d]imidazole-5-carboxamide and (R)-1-((2,2-difluorobenzo[d][1,3]dioxol-4-yl)methyl)-N-(4-(ethylsulfonyl)benzyl)-2-(1-methoxyethyl)-1H-benzo[d]imidazole-5-carboxamide] | > 7.00 | > 7.00
CCS(=O)(=O)c1ccc([C@H](CO)NC(=O)c2ccc3c(c2)nc(C2(F)CC2)n3Cc2cccc3c2OC(F)(F)O3)cc1 [I-18, (R)-1-((2,2-difluorobenzo[d][1,3]dioxol-4-yl)methyl)-N-(1-(4-(ethylsulfonyl)phenyl)-2-hydroxyethyl)-2-(1-fluorocyclopropyl)-1H-benzo[d]imidazole-5-carboxamide] | > 7.00 | > 7.00

Source: US10829481B2, “Benzimidazole derivatives as modulators of ROR-gamma” (Vitae Pharmaceuticals, LLC, priority 2016, dated 2020)
